Measured values as given in ChEMBL document CHEMBL1201862, “PubChem BioAssay data set” (2004).
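96-well plates; 48 h exposure; 5 concentrations. Endpoints by linear interpolation between flanking doses. Not reached: highest tested concentration assigned. The concentration for 50% growth inhibition is given as GI50.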 Calls of active or inactive are those of the source. No stated cut-off is given here; in the data, active = GI50 up to about 1.1 µM and inactive = higher.

Key:
Assay in all cases: inhibition of tumour cell growth, NCI panel, 48 h
COLO 205 = tested on: COLO 205
HOP-62 = tested on: HOP-62
KM12 = tested on: KM12
MDA-MB-435 = tested on: MDA-MB-435
Malme-3M = tested on: Malme-3M
NCI-H23 = tested on: NCI-H23
NCI-H522 = tested on: NCI-H522
NCI/ADR-RES = tested on: NCI/ADR-RES
RPMI-8226 = tested on: RPMI-8226
SF-539 = tested on: SF-539
SK-MEL-2 = tested on: SK-MEL-2
SK-OV-3 = tested on: SK-OV-3
SW-620 = tested on: SW-620
T47D = tested on: T47D
U-251 = tested on: U-251
UACC-257 = tested on: UACC-257
UO-31 = tested on: UO-31
A498 = tested on: A498

| Compound | GI50 (COLO 205) | GI50 (HOP-62) | GI50 (KM12) | GI50 (MDA-MB-435) | GI50 (Malme-3M) | GI50 (NCI-H23) | GI50 (NCI-H522) | GI50 (NCI/ADR-RES) | GI50 (RPMI-8226) | GI50 (SF-539) | GI50 (SK-MEL-2) | GI50 (SK-OV-3) | GI50 (SW-620) | GI50 (T47D) | GI50 (U-251) | GI50 (UACC-257) | GI50 (UO-31) | GI50 (A498) |
| --- | --- | --- | --- | --- | --- | --- | --- | --- | --- | --- | --- | --- | --- | --- | --- | --- | --- | --- |
| NC(=S)c1cccc(C2Nc3ccccc3O2)c1 (stereo not given) | > 100 µM (inactive) | > 100 µM (inactive) | 37.2 µM (inactive) | 43 µM (inactive) | > 100 µM (inactive) | 49.9 µM (inactive) | 71.1 µM (inactive) | 43.9 µM (inactive) | < 0.01 µM (active) | 61.1 µM (inactive) | > 100 µM (inactive) | > 100 µM (inactive) | 75.7 µM (inactive) | 46.7 µM (inactive) | > 100 µM (inactive) | 22.1 µM (inactive) | > 100 µM (inactive) | – |
| COC(=O)CN1SC2(SC13C(C)(C)C(=O)C3(C)C)C(C)(C)C(=O)C2(C)C | 37.3 µM (inactive) | 91 µM (inactive) | 44.6 µM (inactive) | 56.2 µM (inactive) | 50.6 µM (inactive) | > 100 µM (inactive) | – | 34.1 µM (inactive) | 49.8 µM (inactive) | > 100 µM (inactive) | 60.7 µM (inactive) | 41 µM (inactive) | 68.7 µM (inactive) | > 100 µM (inactive) | 94.4 µM (inactive) | 48.2 µM (inactive) | 86.3 µM (inactive) | 30 µM (inactive) |
| CCCC(=O)NC(C(=O)OCC)(N1CCOCC1)C(F)(F)F (stereo not given) | > 100 µM (inactive) | > 100 µM (inactive) | > 100 µM (inactive) | > 100 µM (inactive) | > 100 µM (inactive) | > 100 µM (inactive) | > 100 µM (inactive) | > 100 µM (inactive) | > 100 µM (inactive) | > 100 µM (inactive) | > 100 µM (inactive) | > 100 µM (inactive) | > 100 µM (inactive) | > 100 µM (inactive) | > 100 µM (inactive) | > 100 µM (inactive) | > 100 µM (inactive) | – |
| Cc1c2c(c(O)c3c(O)cccc13)C(=O)C1(O)C(=O)C(C(=O)NCNc3ccc(C(N)=O)cn3)=C(O)C(N(C)C)C1C2 (stereo not given) | 6.28 µM (inactive) | 6 µM (inactive) | 3.53 µM (inactive) | 3.69 µM (inactive) | 3.28 µM (inactive) | 7.74 µM (inactive) | – | 5.5 µM (inactive) | 1.83 µM (inactive) | 2.52 µM (inactive) | 6.95 µM (inactive) | 3.1 µM (inactive) | 3.52 µM (inactive) | 5.61 µM (inactive) | 2.6 µM (inactive) | 3.66 µM (inactive) | – | 2.51 µM (inactive) |
| O=c1oc2ccccc2cc1/C=N/N1C(=S)N(c2ccccc2)C(=N\c2ccccc2)/C1=N/c1ccccc1 | > 100 µM (inactive) | 52.2 µM (inactive) | > 100 µM (inactive) | > 100 µM (inactive) | > 100 µM (inactive) | > 100 µM (inactive) | 34 µM (inactive) | > 100 µM (inactive) | > 100 µM (inactive) | > 100 µM (inactive) | > 100 µM (inactive) | > 100 µM (inactive) | 8.71 µM (inactive) | 3.49 µM (inactive) | > 100 µM (inactive) | 96.8 µM (inactive) | > 100 µM (inactive) | – |
| CNC(=S)N1CCN(C(C)=O)C1=S | 97.5 µM (inactive) | 70.5 µM (inactive) | 56.9 µM (inactive) | 22.2 µM (inactive) | 12.7 µM (inactive) | 27.7 µM (inactive) | 45.1 µM (inactive) | 69.3 µM (inactive) | – | 20.4 µM (inactive) | 2.25 µM (inactive) | 66.8 µM (inactive) | 86.5 µM (inactive) | 19.5 µM (inactive) | 4.02 µM (inactive) | 70.6 µM (inactive) | 50.7 µM (inactive) | 35.6 µM (inactive) |
| O=C1C=C(Nc2cccnc2)c2ccccc2/C1=N/O | 19.4 µM (inactive) | 23 µM (inactive) | 13.6 µM (inactive) | 12.7 µM (inactive) | – | 19.7 µM (inactive) | 9.89 µM (inactive) | 21.5 µM (inactive) | 38 µM (inactive) | 18.5 µM (inactive) | 31.3 µM (inactive) | 46.2 µM (inactive) | 18.3 µM (inactive) | 30.1 µM (inactive) | 26.3 µM (inactive) | 33.1 µM (inactive) | 21 µM (inactive) | 41.3 µM (inactive) |
| CCOC(=O)Cc1nc2nn(Cc3ccccc3)cc2c(=O)[nH]1 | > 100 µM (inactive) | > 100 µM (inactive) | > 100 µM (inactive) | > 100 µM (inactive) | > 100 µM (inactive) | > 100 µM (inactive) | – | > 100 µM (inactive) | > 100 µM (inactive) | > 100 µM (inactive) | – | > 100 µM (inactive) | > 100 µM (inactive) | > 100 µM (inactive) | > 100 µM (inactive) | > 100 µM (inactive) | > 100 µM (inactive) | 19.3 µM (inactive) |
| Brc1cccc(/N=N/N2CCCC2)c1 | > 100 µM (inactive) | > 100 µM (inactive) | 93.5 µM (inactive) | > 100 µM (inactive) | – | 67.9 µM (inactive) | 68.9 µM (inactive) | 81.5 µM (inactive) | 17.2 µM (inactive) | > 100 µM (inactive) | > 100 µM (inactive) | > 100 µM (inactive) | > 100 µM (inactive) | 50.2 µM (inactive) | 80.5 µM (inactive) | > 100 µM (inactive) | 56.1 µM (inactive) | > 100 µM (inactive) |
| O=P1(Oc2ccccc2)N=P(c2ccccc2)(c2ccccc2)C=C(c2ccc(Cl)cc2)N1 (stereo not given) | 5.15 µM (inactive) | 16.4 µM (inactive) | 10.3 µM (inactive) | 4.44 µM (inactive) | 15.5 µM (inactive) | 15.3 µM (inactive) | 10.1 µM (inactive) | 10.9 µM (inactive) | 3.03 µM (inactive) | 15.3 µM (inactive) | 13.5 µM (inactive) | 13.2 µM (inactive) | 12.3 µM (inactive) | 5.19 µM (inactive) | 5.51 µM (inactive) | 15.4 µM (inactive) | 12 µM (inactive) | – |
| O=C1c2ccccc2NC(=O)C2C1C(c1ccccc1)CC2(O)c1ccccc1 (stereo not given) | 17.5 µM (inactive) | 79.1 µM (inactive) | 48 µM (inactive) | > 100 µM (inactive) | > 100 µM (inactive) | 62.7 µM (inactive) | – | 31.7 µM (inactive) | – | > 100 µM (inactive) | 21.9 µM (inactive) | > 100 µM (inactive) | 50.8 µM (inactive) | 49.7 µM (inactive) | – | 79.4 µM (inactive) | – | > 100 µM (inactive) |
| CC(=O)Oc1cc(S(=O)(=O)Nc2n[nH]c(Nc3ccc(C)cc3)n2)c(S)cc1Cl | > 100 µM (inactive) | – | > 100 µM (inactive) | > 100 µM (inactive) | > 100 µM (inactive) | > 100 µM (inactive) | 92 µM (inactive) | > 100 µM (inactive) | > 100 µM (inactive) | > 100 µM (inactive) | > 100 µM (inactive) | – | > 100 µM (inactive) | > 100 µM (inactive) | > 100 µM (inactive) | > 100 µM (inactive) | > 100 µM (inactive) | > 100 µM (inactive) |
| COC(=O)c1ccccc1C1CN=NC12Cc1c(ccc(C)c1C)C2=O (stereo not given) | > 100 µM (inactive) | 57.3 µM (inactive) | > 100 µM (inactive) | > 100 µM (inactive) | > 100 µM (inactive) | > 100 µM (inactive) | > 100 µM (inactive) | > 100 µM (inactive) | – | – | > 100 µM (inactive) | 72.8 µM (inactive) | > 100 µM (inactive) | > 100 µM (inactive) | 48.3 µM (inactive) | > 100 µM (inactive) | > 100 µM (inactive) | > 100 µM (inactive) |
| CC12CCc3ccccc3C1=Nc1ccccc12 (stereo not given) | 42.8 µM (inactive) | 86.1 µM (inactive) | 24.1 µM (inactive) | 25.3 µM (inactive) | 28.1 µM (inactive) | 31.1 µM (inactive) | 23.7 µM (inactive) | 22.4 µM (inactive) | – | 14.2 µM (inactive) | 47.9 µM (inactive) | > 100 µM (inactive) | 45.9 µM (inactive) | 21.1 µM (inactive) | 44.6 µM (inactive) | 49.8 µM (inactive) | 24.3 µM (inactive) | – |
| Clc1ncnc2c1nc(C#Cc1ccccc1)n2C1CCCCO1 (stereo not given) | 1.62 µM (inactive) | 2.38 µM (inactive) | 1.63 µM (inactive) | 2.35 µM (inactive) | 1.95 µM (inactive) | 1.99 µM (inactive) | 1.81 µM (inactive) | 2.75 µM (inactive) | – | 1.91 µM (inactive) | 2.47 µM (inactive) | 7.67 µM (inactive) | 1.86 µM (inactive) | 1.7 µM (inactive) | 2.08 µM (inactive) | 2.61 µM (inactive) | 1.93 µM (inactive) | 2.63 µM (inactive) |
| Cc1ccc(-c2nc3cc([N+](=O)[O-])ccc3[nH]2)cc1 | 72.9 µM (inactive) | > 100 µM (inactive) | 54 µM (inactive) | > 100 µM (inactive) | > 100 µM (inactive) | > 100 µM (inactive) | 41.7 µM (inactive) | 40.8 µM (inactive) | 43.1 µM (inactive) | > 100 µM (inactive) | > 100 µM (inactive) | > 100 µM (inactive) | > 100 µM (inactive) | 39.6 µM (inactive) | > 100 µM (inactive) | 80.4 µM (inactive) | 57.8 µM (inactive) | – |
| C=CC[C@@H]1C=C[C@@H](C(=O)OC)n2c(=O)n(-c3ccccc3)c(=O)n21 | > 100 µM (inactive) | > 100 µM (inactive) | > 100 µM (inactive) | > 100 µM (inactive) | – | > 100 µM (inactive) | > 100 µM (inactive) | > 100 µM (inactive) | > 100 µM (inactive) | > 100 µM (inactive) | – | > 100 µM (inactive) | > 100 µM (inactive) | > 100 µM (inactive) | > 100 µM (inactive) | > 100 µM (inactive) | > 100 µM (inactive) | > 100 µM (inactive) |
